The nature of data set [1]: Pharmacokinetic experiment in SD rats. The note with it: p.o, 5 mg/kg vs i.v, 0.5 mg/kg.
Protocol: (§1) Example 59: Pharmacokinetic Experiment of Compounds in SD Rats
(§2) SD rats, male, 6-8 weeks old, purchased from Zhejiang Vital River Laboratory Animal Technology Co., Ltd., production license No.: SCXK (Zhejiang) 2019-0001. The animals were maintained in an SPF-grade animal room of Hangzhou Bio-Sincerity Pharma-Tech Co., Ltd., with the experimental animal use license No. of SYXK (Zhejiang) 2021-0014. The animals were used after being acclimatized for at least one week. All experiments were performed in strict compliance with the regulations on experimental animals.
(§3) Four hours after administration, food was provided.
(§4) After administration to SD rats, about 300 µL of blood was collected from the orbit of each animal and anticoagulated with EDTA-Na2. […] The collected blood was placed in an ice bath and centrifuged within 1 h to separate plasma (centrifugation conditions: 2000× g, 10 min, 4 °C). 50 µL of plasma sample was taken, subjected to protein precipitation, and then assayed by UHPLC-MS. The assay data were analyzed and processed using WinNonLin8.1 pharmacokinetic software to obtain pharmacokinetic parameters.
The next data set is described as follows: in vivo. Particulars: male, SD, rat, plasma.
A further data set concerns HT-29 cells. The data set is described as follows: Inhibition of TNF-α-induced necroptosis of HT-29 cells (SRB method). Format: cell-based, human. Particulars: Homo sapiens, HT-29, TNF-α 20 ng/mL + BV6 2 µM + Z-VAD-FMK 20 µM, 18 h. In outline:
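HT-29 cells (3 × 10^4/well, 24 h) were treated 18 h with compound (8 three-fold dilutions, 1000.00-0.46 nM, duplicate) plus TNF-α 20 ng/mL, BV6 2 µM and Z-VAD-FMK 20 µM final, at 37 °C. Viability was read by SRB absorbance; EC50 values were fitted.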
For orientation: The SRB assay estimates cell density from bound dye.

For another data set, the system named is U937 cells. The data set is described as follows: Inhibition of TNF-α-induced necroptosis of U937 cells (CCK-8 assay). Format: cell-based, human. The note with it: Homo sapiens, U-937, TNF-α 20 ng/mL + BV6 2 µM + Z-VAD-FMK 20 µM, 18 h. In outline: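 U937 cells (3.6 × 10^4/well) rested 6 h, then exposed to TNF-α 20 ng/mL, BV6 2 µM and Z-VAD-FMK 20 µM plus compound (8-point 3-fold series, 1000–0.46 nM, duplicate) for 18 h. Viability by CCK-8, absorbance at 450 nm after 2-4 h at 37 °C; EC50 calculated.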
(Tetrazolium assays rely on reduction of a dye to a coloured formazan, in cell work by metabolically active cells.)

SMILES strings stand for the structures.

This note sets out measurements from patent EP4772510A2, “BENZAZEPINONE COMPOUND AND USE THEREOF” (HANGZHOU BIO-SINCERITY PHARMA-TECHCO., LTD., priority 2023, dated 2025).

Protocol for in vivo: as §1, §2, §3, §4

A word on the AUC(0-t): it is exposure summed from dosing to a finite time, without extrapolation to infinity. Higher therefore signals more exposure. What is called Cmax is the maximum level reached in the sampled fluid or tissue. Broadly, the clearance is a measure of how efficiently the substance is removed, as volume per time. A word on the half-life: it is how long it takes for the measured level to halve. The CL/F is the apparent clearance, not corrected for the fraction that reaches the circulation. Turning to `O=C(NC1CCc2cccc3c2N(CC3)C1=O)c1ncn(Cc2c(F)cccc2F)n1` (stereo not drawn) [Example 13 in CN20191051 8248X, 1-(2,6-difluorobenzyl)-N-(4-oxo-1,2,3,4,6,7-hexahydroazepino[3,2,1-hi]indol-3-yl)-1H-1,2,4-triazole-3-carboxamide, reference compound], the “Fabs (%)” value in data set [1] was 12.55 ± 6.41%. In addition, in the data set “in vivo” (intravenous, 0.5 mg/kg), the AUC(0-t) was determined as 271 ± 38 ng·h/mL, the peak level (Cmax) was 983 ± 106 ng/mL, the clearance is 31 ± 4.47 mL/min/kg and the half-life is 26.4 ± 15.6 min. In the data set “in vivo” (oral, 5 mg/kg), this compound showed an AUC(0-t) of 340 ± 174 ng·h/mL, a CL/F of 8.37 ± 4.01 mL/min/kg, a Cmax of 467 ± 215 ng/mL and a half-life of 20.4 ± 8.4 min.

In general, EC50 refers to the concentration that produces a half-maximal response. As to `O=C(NC1CCc2cc(C#Cc3cnn(C(F)F)c3)cc3c2N(CC3)C1=O)c1ncn(Cc2cc(F)cc(F)c2)n1` (stereo not drawn) [III-18, 1-(3,5-difluorobenzyl)-N-(9-((1-(difluoromethyl)-1H-pyrazol-4-yl)ethynyl)-4-oxo-1,2,3,4,6,7-hexahydroazepino[3,2,1-hi]indol-3-yl)-1H-1,2,4-triazole-3-carboxamide], the EC50 with HT-29 cells is 5 to 10 nM; in the data set with U937 cells it was 10 to 100 nM.

For `O=C(NC1CCc2cc(C#Cc3cnn(C(F)F)c3)cc3c2N(CC3)C1=O)c1ncn(Cc2ccc(F)cc2F)n1` (stereo not drawn) [III-20, 1-(2,4-difluorobenzyl)-N-(9-((1-(difluoromethyl)-1H-pyrazol-4-yl)ethynyl)-4-oxo-1,2,3,4,6,7-hexahydroazepino[3,2,1-hi]indol-3-yl)-1H-1,2,4-triazole-3-carboxamide], the EC50 in the data set on HT-29 cells and with U937 cells was 5 to 10 nM each time.

With `Cc1ccccc1Cn1cnc(C(=O)NC2CCc3cc(C#Cc4cnn(C(F)F)c4)cc4c3N(CC4)C2=O)n1` (stereo not drawn) [III-22, N-(9-((1-(difluoromethyl)-1H-pyrazol-4-yl)ethynyl)-4-oxo-1,2,3,4,6,7-hexahydroazepino[3,2,1-hi]indol-3-yl)-1-(2-methylbenzyl)-1H-1,2,4-triazole-3-carboxamide], the EC50 was 5 to 10 nM with HT-29 cells and 10 to 100 nM in the data set on U937 cells.

For the compound `O=C(NC1CCc2cc(C#Cc3cnn(C(F)F)c3)cc3c2N(CC3)C1=O)c1ncn(Cc2ccc(F)c(F)c2)n1` (stereo not drawn) [III-23, 1-(3,4-difluorobenzyl)-N-(9-((1-(difluoromethyl)-1H-pyrazol-4-yl)ethynyl)-4-oxo-1,2,3,4,6,7-hexahydroazepino[3,2,1-hi]indol-3-yl)-1H-1,2,4-triazole-3-carboxamide], the EC50 in the data set with HT-29 cells and in the data set with U937 cells was 10 to 100 nM in each case.

Turning to `O=C(NC1CCc2cc(C#Cc3cnn(C(F)F)c3)cc3c2N(CC3)C1=O)c1ncn(Cc2ccc(F)cc2)n1` (stereo not drawn) [III-24, N-(9-((1-(difluoromethyl)-1H-pyrazol-4-yl)ethynyl)-4-oxo-1,2,3,4,6,7-hexahydroazepino[3,2,1-hi]indol-3-yl)-1-(4-fluorobenzyl)-1H-1,2,4-triazole-3-carboxamide], the EC50 in the data set with HT-29 cells lay in the range of 10 to 100 nM; with U937 cells, 5 to 10 nM.

Take `O=C(NC1CCc2cc(C#Cc3cnn4c3COCC4)cc3c2N(CC3)C1=O)c1ncn(Cc2c(F)cccc2F)n1` (stereo not drawn) [III-27, 1-(2,6-difluorobenzyl)-N-(9-((6,7-dihydro-4H-pyrazolo[5,1-c] [1,4]oxazin-3-yl)ethynyl)-4-oxo-1,2,3,4,6,7-hexahydroazepino[3,2,1-hi]indol-3-yl)-1H-1,2,4-triazole-3-carboxamide]: the EC50 in the data set on HT-29 cells and in the data set with U937 cells was < 5 nM each time.

Consider `C=Cn1ncc(C#Cc2cc3c4c(c2)CCN4C(=O)C(NC(=O)c2ncn(Cc4c(F)cccc4F)n2)CC3)c1C=O` (stereo not drawn) [III-28, 1-(2,6-difluorobenzyl)-N-(9-((5-formyl-1-vinyl-1H-pyrazol-4-yl)ethynyl)-4-oxo-1,2,3,4,6,7-hexahydroazepino[3,2,1-hi]indol-3-yl)-1H-1,2,4-triazole-3-carboxamide], for which the EC50 in the data set on HT-29 cells and with U937 cells was < 5 nM throughout.

Consider `O=C(NC1CCc2cc(C#Cc3cnn(C4COC4)c3)cc3c2N(CC3)C1=O)c1ncn(Cc2c(F)cccc2F)n1` (stereo not drawn) [III-29, 1-(2,6-difluorobenzyl)-N-(9-((1-(oxetan-3-yl)-1H-pyrazol-4-yl)ethynyl)-4-oxo-1,2,3,4,6,7-hexahydroazepino[3,2,1-hi]indol-3-yl)-1H-1,2,4-triazole-3-carboxamide], for which the 50% effective concentration (EC50) with HT-29 cells and in the data set on U937 cells was < 5 nM each time.

For `O=C(NC1CCc2cc(C#Cc3cnn(C4CCC4)c3)cc3c2N(CC3)C1=O)c1ncn(Cc2c(F)cccc2F)n1` (stereo not drawn) [III-30, N-(9-((1-cyclobutyl-1H-pyrazol-4-yl)ethynyl)-4-oxo-1,2,3,4,6,7-hexahydroazepino[3,2,1-hi]indol-3-yl)-1-(2,6-difluorobenzyl)-1H-1,2,4-triazole-3-carboxamide], the EC50 in the data set with HT-29 cells and in the data set with U937 cells was < 5 nM each time.

Take `Cn1cc(C#Cc2cc3c4c(c2)CCN4C(=O)C(NC(=O)c2ncn(Cc4ccccn4)n2)CC3)cn1` (stereo not drawn) [III-31, N-(9-((1-methyl-1H-pyrazol-4-yl)ethynyl)-4-oxo-1,2,3,4,6,7-hexahydroazepino[3,2,1-hi]indol-3-yl)-1-(pyridin-2-ylmethyl)-1H-1,2,4-triazole-3-carboxamide]: the figures for the EC50 in the data set with HT-29 cells and with U937 cells were < 5 nM and 5 to 10 nM, respectively.

Consider `Cn1cc(C#Cc2cc3c4c(c2)CCN4C(=O)C(NC(=O)c2ncn(Cc4ccccc4)n2)CC3)cn1` (stereo not drawn) [III-32, 1-benzyl-N-(9-((1-methyl-1H-pyrazol-4-yl)ethynyl)-4-oxo-1,2,3,4,6,7-hexahydroazepino[3,2,1-hi]indol-3-yl)-1H-1,2,4-triazole-3-carboxamide], for which the EC50 in the data set on HT-29 cells and in the data set with U937 cells was < 5 nM in each case.

Consider `Cn1cc(C#Cc2cc3c4c(c2)CCN4C(=O)C(NC(=O)c2ccn(Cc4c(F)cccc4F)n2)CC3)cn1` (stereo not drawn) [XIII-1, 1-(2,6-difluorobenzyl)-N-(9-((1-methyl-1H-pyrazol-4-yl)ethynyl)-4-oxo-1,2,3,4,6,7-hexahydroazepino[3,2,1-hi]indol-3-yl)-1H-pyrazole-3-carboxamide], for which the EC50 in the data set on HT-29 cells and in the data set on U937 cells was 10 to 100 nM each time.
